By melting point is commonly meant the temperature, or range, at which the solid turns liquid.

`CC(C)(C)OC(=O)[C@@H]1CS[C@H](c2c(F)cccc2Cl)N1C(=O)CNC(=O)Nc1cccc(C(=O)O)c1` yielded a melting point of 148 °C.
`Cc1ccc(NCCCNc2ncc(Cc3ccc(C)nc3)c(=O)[nH]2)nc1`: the melting point fell in the range of 164 to 166 °C.
Then `N#Cc1cc(N=Nc2cc(Cl)ccc2Cl)ccc1N`, with 250 °C.
The molecule `COC(=O)CN(C)C(=O)CC(Cc1cccc2ccccc12)C(=O)NC(Cc1c[nH]cn1)C(=O)NC(CC(C)C)C(O)C(=O)OC(C)C` (mixture of isomers) displayed a melting point of 76 to 80 °C.
The figure for `C[C@@H](n1cnc2cc(S(=O)(=O)c3ccccc3)ccc2c1=O)[C@](O)(Cn1cncn1)c1ccc(F)cc1F` is 125 to 130 °C; for `Cn1ncnc1COc1nc2c(cc1-c1ccc(F)cc1)nnn2-c1ccccc1F` it is 142 to 145 °C.
The figure for `NC(=O)c1cnn2c1NCC=C2c1cccnc1` is 182 to 184 °C.
The figure for `Cc1nc(O)cc2sccc12` is 225 to 227 °C; for `Cc1ccc2c3c(c(=O)oc2c1)CN(CCN1CC2CCCC(C2)C1)CC3` it is 150 to 152 °C.
`Cc1nc(C(O)(Cn2cncn2)c2ccc(Cl)cc2)sc1C` (configuration not stated) gave a melting point of 174 °C.
Then `CC(=O)Nc1cc(N)ccc1OCCCN`, with 102 to 106 °C.
Turning to `Cc1ccc(Oc2c(C)cc([N+](=O)[O-])c(C)c2Cl)c(C)c1`, the melting point lay in the range of 78 to 80 °C.
`COC(=O)C1=C(C)NC(c2csc(C)n2)=NC1c1ccc(F)cc1Cl` (configuration not stated) came in with a melting point of 128 to 130 °C.
Regarding `CCCOC(C(=O)O)c1ccc2c(c1)C(C)(C)CCC2(C)C` (racemic), the melting point lay within 84 to 86 °C.
Then `CCCCSc1ccc(C(=O)O)nc1`, with 100 to 102 °C.
Molecule `C=CCc1cc(NC(C)=O)ccc1O` came in with a melting point of 82 to 85 °C.
For `COc1ccc(C(O)CNCCc2ccc(OC)c(OC)c2)cc1` (configuration not stated), the melting point turned out to be 92 °C.
In turn, `COc1ccc(Cl)cc1C(=O)Nc1ccc(CC(=O)O)cc1` displayed a melting point of 152 °C.
Then `O=C(c1ccccc1)n1c(=O)c(F)cn(C2CC(O)C(CO)O2)c1=O` (configuration not stated), with 126 to 127 °C.
The molecule `CCCc1c(OCCCCCc2ccc3cc(OC)c(OC)cc3c2)ccc(C(=O)O)c1O` had a melting point of 135 to 137 °C.
`CCCC1CCc2c3c(c(F)c(F)c2O1)OC(C)C3` (configuration not stated) showed a melting point of 87 °C.
Then `CCN(c1nc(C)cc(-c2ccccc2Cl)n1)c1c(Br)cc(N(C)C)cc1OC`, with 131 to 132 °C; and `CCC(=O)n1nc(-c2cc(C(C)(C)C)c(O)c(C(C)(C)C)c2)c2cccnc21`, with 184 to 185 °C; and `CNC(=O)c1cc(-c2ccc(OC)cc2)nn(CC=C(C)C)c1=O`, with 104 °C.
Then `CCOC=Nc1ccc2nnc(-c3ccc([N+](=O)[O-])s3)n2n1`, with 180 to 182 °C.
Then `CC(=O)c1ccc2c(c1)Cc1cc(C#N)ccc1-2`, with 182 to 188 °C; and `CC(C)(C)NC(=O)c1nn(-c2cc(F)cc(F)c2)c2c1C1CCC2C1` (configuration not stated), with 103 to 107 °C.
For `COc1cc(Nc2c(C#N)cnc3cc(-c4ccc(CN(C)C)cc4)sc23)c(Cl)cc1Cl`, the melting point was in the range of 224 to 225 °C.
The figure for `Cc1oc(-c2ccccc2)nc1CCOc1ccc(COc2ccccc2CC(=O)O)cn1` is 159 to 160 °C.
With `CCCCc1ccc(-c2cc(C(=O)O)cc(-c3ccc(Cl)cc3)n2)cc1`, the melting point lay within 209 to 210 °C.
Take `COC(=O)Nc1cccc(C)c1CNc1cc(C(=O)N(C)C)cc2c1nc(C)n2C`: the melting point was in the range of 193 to 195 °C.
Then `CN(Cc1ccc(NC(=O)c2coc3c2C(=O)CCC3)cc1)C(=O)OC(C)(C)C`, with 150 °C; and `COc1ccc(-c2nccn2N=Cc2ccc(N(C)C)cc2)cc1`, with 108 °C.
Then `CCNC(=S)NC1CCCCc2sccc21` (configuration not stated), with 117 to 120 °C.
The molecule `C=CC(=O)OCCNC(=O)C(C)ON(C(C(C)(C)C)P(=O)(OCC)OCC)C(C)(C)C` (configuration not stated) returned a melting point of 95 to 98 °C.
As to `O=C(CC1CSCCC1=O)c1ccc(Cl)cc1` (configuration not stated), the melting point lay within 78 to 81 °C.
Molecule `CCOC(=O)c1c(C(F)(F)F)nc(C(F)(F)F)c(C(=O)OCC)c1Br` displayed a melting point of 56 to 61 °C.
The figure for `CCCCCCCCCCCc1nnc2n1-c1sc(CC)cc1C(c1ccc(OC)cc1)OC2` (configuration not stated) is 91 to 93 °C; for `CCOC(=O)c1nnc(N2CCN(c3ccc(N4CC(CNC(C)=O)OC4=O)cc3)CC2F)s1` (configuration not stated) it is 228 to 230 °C; for `CC(N)C1CCC(C(=O)Nc2ccncc2)CC1` (configuration not stated) it is 286 to 287 °C.
Consider `CN(C)c1ncc(O)c(-c2ccc(Cl)c(Cl)c2)n1`, for which the melting point fell in the range of 188 to 189 °C.
The molecule `CCC(Oc1ccccc1C#N)C(=O)OC1CC(O)C=C2C=CC(C)C(CCC3CC(O)CC(=O)O3)C21` (mixture of isomers) displayed a melting point of 95 to 97 °C.
`CN[C@@H]1COc2cc(Cl)cc(-c3ccc(Cl)cc3C)c2O1` displayed a melting point of 110 °C.
`Cc1cc(NC(=O)Nc2ccc(N(CCCl)CCCl)cc2)c2ccccc2n1`: the melting point was in the range of 128 to 129 °C.
The figure for `Oc1ccc(-n2nnnc2C2CC2)cc1` is 184 °C; for `O=C1C=CC(=O)c2cc(C(F)(F)F)ccc21` it is 80 to 85 °C.
In turn, `COc1ccc(C(=O)Nc2cc(-c3c(-c4cccc(C)c4)nc4ccc(N(C)C)nn34)ccn2)cc1` returned a melting point of 193 to 194 °C.
The figure for `O=C1Nc2ccc(Cl)cc2C(OCC2CC2)(C(F)(F)F)CN1C1CCC1` (configuration not stated) is 156 °C.
Then `COC(=O)c1cc(-c2ccncc2)cc2c1OC(c1ccccc1)(c1ccccc1)O2`, with 151 to 152 °C; and `COc1c(C2CCN(CCCCNC(=O)c3ccc(-c4ccc(C#N)s4)cc3)CC2)ccc2c1CCCC2`, with 182 to 184 °C.
Then `N#Cc1cc(F)c(N=c2snc3n2CCCC3)cc1F`, with 137 °C; and `CC12CCC(=O)C=C1CCC1C2C(F)CC2(C)C(O)CCC12` (configuration not stated), with 161 to 162 °C.
Molecule `CCc1nc2cc(NS(C)(=O)=O)c(Cl)cc2n1-c1ccc(CCNC(=O)NS(=O)(=O)c2ccc(C)cc2)cc1` yielded a melting point of 101 to 123 °C.
The figure for `O=C(CBr)CCc1ccc(Br)cc1` is 63 to 64 °C.
`CC1CCN(C=Nc2ccc3c(c2)C(=O)c2ccc(N=CN4CCC(C)CC4)cc2C3=O)CC1` returned a melting point of 229 to 233 °C.
The figure for `CNCCC1CN(c2c(F)cc3c(=O)c(C(=O)O)cn(C4CC4)c3c2F)CCO1` (configuration not stated) is 243 to 251 °C.
As to `CCc1cccc(CC)c1NC(=O)CN`, the melting point fell in the range of 70 to 71 °C.
With `Nc1cnc(-c2ccc(OCc3ccccc3)c(C34CC5CC(CC(C5)C3)C4)c2)nc1`, the melting point fell in the range of 216 to 219 °C.
Then `COC1(N2CCCC2)C=CC=C(c2cnc3[nH]cc(C(=O)C(C)(C)C)c3n2)C1` (configuration not stated), with 245 to 256 °C.
`CCCCC[C@H]1CC[C@H](c2ccc(NC(=O)OC)cc2)CC1` had a melting point of 105 to 110 °C.
For the molecule `COC(=O)Cc1cc2c(s1)NC(=S)C(C)N=C2c1ccccc1Cl` (configuration not stated), the melting point was in the range of 196 to 197 °C.
For `CCCCCCS(=O)(=O)c1nn2c(=O)c(Cl)c(F)nc2s1`, the melting point was 185 to 188 °C.
The figure for `CC[C@@H]1CN(c2c(F)cc3c(=O)c(C(=O)O)cn4c3c2OC[C@@H]4C)C[C@H]1N` is 189 to 191 °C; for `O=C(O)C[C@H]1CC[C@H](Sc2nc(C3OCCO3)n(Cc3cc4c(cc3Cl)OCO4)c2C(=O)O)CC1` it is 145 °C.
The figure for `O=C(C(=Cc1cc(O)c(O)c([N+](=O)[O-])c1)C(=O)C1CC1)C1CC1` is 159 to 162 °C.
Then `CN(C)C(=S)SC(C[N+](=O)[O-])c1cccs1` (configuration not stated), with 88 to 90 °C; and `Nc1nc2c(s1)CCN(CC=Cc1ccc3ccccc3c1)CC2`, with 164 to 165 °C; and `NC1=NC(c2ccc(OC(F)(F)F)cc2)(c2cccc(CCC3CC3)c2)C2=NCCCN12` (configuration not stated), with 65 to 77 °C.
For the molecule `OCCCc1cnoc1-c1ccc(-c2ccccc2)cc1`, the melting point is 94 to 95 °C.
The molecule `COC(=O)C=Cc1nn(-c2ccccc2)c2c1CCC2` yielded a melting point of 147 to 148 °C.
Then `Cc1[nH]c(=O)n(C2CCCCC2)c1-c1ccc(OCCC(C)C)cc1`, with 198 to 200 °C; and `COc1cccc([C@H]2SC[C@@H](C(=O)OC(C)(C)C)N2C(=O)CNC(=O)Nc2cccc(C(=O)O)c2)c1`, with 125 °C.
In the case of `CCC(=NNC(=O)c1ccccc1)c1ccncc1`, the melting point was determined as 178 °C.
The figure for `CCC(C)Nc1c(C(F)(F)F)cc([N+](=O)[O-])c(Cl)c1[N+](=O)[O-]` (configuration not stated) is 90.5 to 91.5 °C.
Then `CC1(C)CCC(C)(C)c2cc(-c3cc(-c4ccc(C(N)=O)cc4)ccc3-c3ccccc3)ccc21`, with 220 °C; and `CCc1cccc2c(/C=C(/C)C(=O)O)cc(OC)c(O)c12`, with 127 to 128 °C; and `CCn1cc(C(=O)O)c(=O)cc1-c1cccnc1`, with 209 to 210 °C.
As to `CO/N=C(/C(N)=O)c1ccccc1COc1cc(C)ccc1C`, the melting point came out at 122 °C.
Regarding `Cc1cc(=O)[nH]c2ccc(OCCCN3CCN(Cc4ccc(C(C)(C)C)cc4)CC3)cc12`, the melting point fell in the range of 171 to 172 °C.
The figure for `Cc1nc(N2CCc3ccccc3CC2)c(C#N)c(=O)n1CC=C(F)F` is 158 to 159 °C; for `CC#CCOc1ccc(S(=O)(=O)N2Cc3ccccc3N(C(=O)c3ccco3)CC2C(=O)OC)cc1` (configuration not stated) it is 119 to 120 °C.
The figure for `CC(O)Cc1nc(Cl)ccc1N` (configuration not stated) is 118 to 121 °C; for `COc1cc(OC)c(-c2nc(N)sc2C)cc1Cl` it is 188 °C; for `O=C(c1ccc(F)cc1)C1CCN(CCCn2c(=O)sc3ccccc32)CC1` it is 83 °C.
The figure for `CCCc1nc2c(N)nc3ccccc3c2n1OCC(N)=O` is 192 to 194 °C; for `Fc1ccc(-n2c3c(c4cc(F)ccc42)CN(CCc2ccc4ccccc4n2)CC3)cc1` it is 201 to 203 °C.
With `OC(COc1ccccc1-n1cccc1)CN1CCOCC1` (configuration not stated), the melting point fell in the range of 81 to 82 °C.

Values taken from a melting point compilation (Tetko et al.; mined from patent text by program, amines drawn as free bases though some values may be those of a salt).
